Results published in patent publication US20160008490A1, “METAL CHELATE COMPOUNDS FOR BINDING TO THE PLATELET SPECIFIC GLYCOPROTEIN IIB/IIIA” (BAYER PHARMA AKTIENGESELLSCHAFT, priority 2013, published 2016).

System: in vitro platelet-rich thrombi
Assay: Magnetic resonance imaging of in vitro platelet-rich thrombi
Format: cell-based, human
Settings: 10 μmol substance/L, 20 min incubation, washed three times with plasma, 1.5 T, versus control thrombus without contrast agent
Protocol: Magnetic resonance imaging of in vitro platelet-rich thrombi and incubation solution (example 8) using a 3D turbo spin echo sequence (1.5 T, Siemens Avanto, small extremity coil, TR 1050 ms, TE 9.1 ms, 0.5×0.5×0.6 mm^3). In FIG. 2a an in vitro control thrombus without the addition of a contrast agent is shown. The signal intensity of the control thrombus is slightly higher than the surrounding medium but clearly lower than the signal of the in vitro thrombus which was incubated with example 8 as depicted in FIG. 2b. In FIG. 2c the incubation solution with a final concentration of 10 μmol substance/L of example 8 in human plasma is represented. The signal intensity is higher than the surrounding plasma solutions in the in vitro platelet-rich thrombi 2a and 2b.
The in vitro thrombus in FIG. 2b is incubated with the solution which is depicted in FIG. 2c. After 20 min incubation period the thrombi was washed three times with plasma solution.
The MRI imaging experiments were done with platelet-rich plasma. The preparation of platelet-rich plasma using fresh blood is described in L K Jennings et. al. Blood 1986 1, 173-179 but modified with regard to centrifugation procedure. Briefly, fresh blood was taken from a volunteer using 10 mL citrate-tubes (Sarstedt S-Monovette 02.1067.001, 10 mL, Citrate 3.13%). The 10 mL citrate-tubes were carefully inverted 10 times to mix blood and anticoagulant. […]

## CC(C(=O)NCC(=O)NC[C@H](NC(=O)CNC(=O)C(C)N1CCN(CC(=O)O)CCN(CC(=O)O)CCN(CC(=O)O)CC1)C(=O)NC[C@H](NC(=O)[C@H](CNC(=O)CNC(=O)C(C)N1CCN(CC(=O)O)CCN(CC(=O)O)CCN(CC(=O)O)CC1)NC(=O)CNC(=O)C(C)N1CCN(CC(=O)O)CCN(CC(=O)O)CCN(CC(=O)O)CC1)C(=O)NCCCCc1cccc(C#Cc2cncc([C@H](CC(=O)O)NC(=O)[C@@H]3CCCN(C(=O)CCC4CCNCC4)C3)c2)c1)N1CCN(CC(=O)O)CCN(CC(=O)O)CCN(CC(=O)O)CC1 (stereo partly shown) [Example 8]
  signal intensity of incubated in vitro thrombus (T1-weighted 3D TSE MRI): clearly higher signal than the control thrombi
